Biological target: HIV-1 protease (Human immunodeficiency virus type 1 group M subtype B, UniProt P04585)
Test: HIV-1 protease enzyme inhibition, assay protocol of Toth and Marshall
Type: biochemical

Row | Compound | Ki
1 | COc1ccc2c(c1)OCCCC/C=C\CN(C[C@@H](O)[C@H](Cc1ccccc1)NC(=O)O[C@H]1CO[C@H]3OCC[C@H]31)S2(=O)=O [Inhibitor 14e] | 0.017 ± 0.001 nM
2 | COc1ccc2c(c1)OCCCCCCCN(C[C@@H](O)[C@H](Cc1ccccc1)NC(=O)O[C@H]1CO[C@H]3OCC[C@H]31)S2(=O)=O [Inhibitor 15d] | 0.08 ± 0.02 nM

Reference: PMC2943150 (Journal of medicinal chemistry, 2009)
